{"source": "PubChem BioAssay (NCI)", "assay_in_all_cases": "DTP human tumour cell line panel, 48 h", "key": {"MCF7 breast": {"tested_on": "MCF7 breast"}, "SK-MEL-5 melanoma": {"tested_on": "SK-MEL-5 melanoma"}, "OVCAR-8 ovarian": {"tested_on": "OVCAR-8 ovarian"}, "UACC-62 melanoma": {"tested_on": "UACC-62 melanoma"}, "OVCAR-4 ovarian": {"tested_on": "OVCAR-4 ovarian"}, "DU-145 prostate": {"tested_on": "DU-145 prostate"}, "786-0 renal": {"tested_on": "786-0 renal"}, "NCI-H522 lung": {"tested_on": "NCI-H522 lung"}, "MDA-MB-435": {"tested_on": "MDA-MB-435"}, "MALME-3M melanoma": {"tested_on": "MALME-3M melanoma"}, "SN12C renal": {"tested_on": "SN12C renal"}, "MDA-MB-231 breast": {"tested_on": "MDA-MB-231 breast"}, "PC-3 prostate": {"tested_on": "PC-3 prostate"}, "HCC-2998 colon": {"tested_on": "HCC-2998 colon"}, "SNB-19 CNS": {"tested_on": "SNB-19 CNS"}, "KM12 colon": {"tested_on": "KM12 colon"}, "HOP-62 NSCLC": {"tested_on": "HOP-62 NSCLC"}, "T-47D breast": {"tested_on": "T-47D breast"}, "SR leukemia": {"tested_on": "SR leukemia"}, "SK-OV-3 ovarian": {"tested_on": "SK-OV-3 ovarian"}, "HL-60(TB) leukemia": {"tested_on": "HL-60(TB) leukemia"}, "SK-MEL-2 melanoma": {"tested_on": "SK-MEL-2 melanoma"}, "MOLT-4 leukemia": {"tested_on": "MOLT-4 leukemia"}, "CAKI-1 renal": {"tested_on": "CAKI-1 renal"}, "HS 578T breast": {"tested_on": "HS 578T breast"}, "TK-10 renal": {"tested_on": "TK-10 renal"}, "SF-539 CNS": {"tested_on": "SF-539 CNS"}, "OVCAR-5 ovarian": {"tested_on": "OVCAR-5 ovarian"}, "NCI-H226 lung": {"tested_on": "NCI-H226 lung"}}, "note": "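Where inhibition never reached the appropriate level, the endpoint shown equals the highest concentration tested. Otherwise, values were interpolated linearly from a five-concentration, 48-hour dose response in 96-well plates. GI50 is the concentration that inhibits growth by half. The concentration for full growth arrest is given as TGI.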", "data": [{"compound": "Fc1cccc(COc2ccc(Nc3ncnc4sc(-c5cccs5)cc34)cc2Cl)c1", "values": [{"measurement": "GI50", "setting": "MCF7 breast", "result": 0.75, "unit": "µM"}, {"measurement": "TGI", "setting": "MCF7 breast", "result": 8.42, "unit": "µM"}, {"measurement": "GI50", "setting": "SK-MEL-5 melanoma", "result": 2.93, "unit": "µM"}, {"measurement": "TGI", "setting": "SK-MEL-5 melanoma", "result": 12, "unit": "µM"}, {"measurement": "GI50", "setting": "OVCAR-8 ovarian", "result": 5.5, "unit": "µM"}, {"measurement": "TGI", "setting": "OVCAR-8 ovarian", "result": "> 17.4", "unit": "µM"}, {"measurement": "GI50", "setting": "UACC-62 melanoma", "result": 1.59, "unit": "µM"}, {"measurement": "TGI", "setting": "UACC-62 melanoma", "result": 5.71, "unit": "µM"}, {"measurement": "GI50", "setting": "OVCAR-4 ovarian", "result": 2.06, "unit": "µM"}, {"measurement": "TGI", "setting": "OVCAR-4 ovarian", "result": 8.66, "unit": "µM"}, {"measurement": "GI50", "setting": "DU-145 prostate", "result": 11.1, "unit": "µM"}, {"measurement": "TGI", "setting": "DU-145 prostate", "result": "> 17.7", "unit": "µM"}, {"measurement": "GI50", "setting": "786-0 renal", "result": 8.34, "unit": "µM"}, {"measurement": "TGI", "setting": "786-0 renal", "result": "> 18.7", "unit": "µM"}, {"measurement": "GI50", "setting": "NCI-H522 lung", "result": 7.55, "unit": "µM"}, {"measurement": "TGI", "setting": "NCI-H522 lung", "result": "> 22.4", "unit": "µM"}, {"measurement": "GI50", "setting": "MDA-MB-435", "result": 3.61, "unit": "µM"}, {"measurement": "TGI", "setting": "MDA-MB-435", "result": "> 19.1", "unit": "µM"}, {"measurement": "GI50", "setting": "MALME-3M melanoma", "result": 3.52, "unit": "µM"}, {"measurement": "TGI", "setting": "MALME-3M melanoma", "result": 10.1, "unit": "µM"}, {"measurement": "GI50", "setting": "SN12C renal", "result": 9.2, "unit": "µM"}, {"measurement": "TGI", "setting": "SN12C renal", "result": "> 25", "unit": "µM"}, {"measurement": "GI50", "setting": "MDA-MB-231 breast", "result": 5.73, "unit": "µM"}, {"measurement": "TGI", "setting": "MDA-MB-231 breast", "result": 16.4, "unit": "µM"}, {"measurement": "GI50", "setting": "PC-3 prostate", "result": "> 10.7", "unit": "µM"}, {"measurement": "TGI", "setting": "PC-3 prostate", "result": "> 20.4", "unit": "µM"}, {"measurement": "GI50", "setting": "HCC-2998 colon", "result": 5.25, "unit": "µM"}, {"measurement": "TGI", "setting": "HCC-2998 colon", "result": "> 18.4", "unit": "µM"}, {"measurement": "GI50", "setting": "SNB-19 CNS", "result": 5.33, "unit": "µM"}, {"measurement": "TGI", "setting": "SNB-19 CNS", "result": 12, "unit": "µM"}, {"measurement": "GI50", "setting": "KM12 colon", "result": 4.07, "unit": "µM"}, {"measurement": "TGI", "setting": "KM12 colon", "result": "> 25", "unit": "µM"}, {"measurement": "GI50", "setting": "HOP-62 NSCLC", "result": 4.88, "unit": "µM"}, {"measurement": "TGI", "setting": "HOP-62 NSCLC", "result": 9.86, "unit": "µM"}, {"measurement": "GI50", "setting": "T-47D breast", "result": 2.71, "unit": "µM"}, {"measurement": "TGI", "setting": "T-47D breast", "result": 9.04, "unit": "µM"}, {"measurement": "GI50", "setting": "SR leukemia", "result": "> 16.4", "unit": "µM"}, {"measurement": "TGI", "setting": "SR leukemia", "result": "> 25", "unit": "µM"}, {"measurement": "GI50", "setting": "SK-OV-3 ovarian", "result": 3.47, "unit": "µM"}, {"measurement": "TGI", "setting": "SK-OV-3 ovarian", "result": 9.69, "unit": "µM"}, {"measurement": "GI50", "setting": "HL-60(TB) leukemia", "result": "> 25", "unit": "µM"}, {"measurement": "TGI", "setting": "HL-60(TB) leukemia", "result": "> 25", "unit": "µM"}, {"measurement": "GI50", "setting": "SK-MEL-2 melanoma", "result": 2.46, "unit": "µM"}, {"measurement": "TGI", "setting": "SK-MEL-2 melanoma", "result": 8.83, "unit": "µM"}, {"measurement": "GI50", "setting": "MOLT-4 leukemia", "result": "> 25", "unit": "µM"}, {"measurement": "TGI", "setting": "MOLT-4 leukemia", "result": "> 25", "unit": "µM"}, {"measurement": "GI50", "setting": "CAKI-1 renal", "result": "> 9.71", "unit": "µM"}, {"measurement": "TGI", "setting": "CAKI-1 renal", "result": "> 25", "unit": "µM"}, {"measurement": "GI50", "setting": "HS 578T breast", "result": "> 8.44", "unit": "µM"}, {"measurement": "TGI", "setting": "HS 578T breast", "result": "> 14.9", "unit": "µM"}, {"measurement": "GI50", "setting": "TK-10 renal", "result": 4.76, "unit": "µM"}, {"measurement": "TGI", "setting": "TK-10 renal", "result": 10.8, "unit": "µM"}, {"measurement": "GI50", "setting": "SF-539 CNS", "result": 5.55, "unit": "µM"}, {"measurement": "TGI", "setting": "SF-539 CNS", "result": 15.3, "unit": "µM"}, {"measurement": "GI50", "setting": "OVCAR-5 ovarian", "result": 6.89, "unit": "µM"}, {"measurement": "TGI", "setting": "OVCAR-5 ovarian", "result": "> 25", "unit": "µM"}, {"measurement": "GI50", "setting": "NCI-H226 lung", "result": 4.58, "unit": "µM"}, {"measurement": "TGI", "setting": "NCI-H226 lung", "result": 15.2, "unit": "µM"}]}]}
